Laboratory results reported in PMC12316734, “Lipase Activation by Poly(Methyl Methacrylate) in Dispersed Solution: Mechanistic Insights by Fluorescence Spectroscopy” (Applied Biochemistry and Biotechnology, 2025).

Target: T1, Bacillus subtilis lipase A (BSLA WT) (Bacillus subtilis, UniProt P37957)
T1 construct: gene estA
Assay: fluorogenic hydrolysis assay
Assay type: biochemical
Conditions: 500 nM enzyme, 20 °C; W42C purified by cation exchange

Structure (SMILES): CCCC(=O)Oc1ccc2c(C)cc(=O)oc2c1 [4-methylumbelliferyl butyrate]
- fluorogenic hydrolysis assay: The kinetic effect of PMMA on BSLA WT and W42C was found to be identical
